Assays:
[1] = system: dopaminergic neurons in the substantia nigra; assay: Number of dopaminergic neurons in substantia nigra of MPTP mouse model (TH immunochemical staining); format: in vivo; conditions: MPTP mice administered CD1-012, TH staining (FIGS. 13A and 13B)
Method: Subsequently, it was confirmed whether CD1-012 administration can inhibit dopaminergic neuron death in the substantia nigra of the animal model of Parkinson's disease. To this end, the number of dopaminergic neurons was measured by performing TH immunochemical staining on the substantia nigra of the mice undergoing the behavioral experiment in Example 4.

BEAS-2B cell line = assay: Autophagy activity in BEAS-2B cells expressing Keima (confocal microscope); format: cell-based, human; conditions: 15 μM, 18 hours (FIG. 4B)
Method: It was confirmed whether CD1-012 synthesized in Example 1 specifically increases only mitophagy activity. To this end, the BEAS-2B cell line expressing mt-Keima was treated with CD1-012 (15 μM) or Comparative Example 1 (CCCP, 10 μM) for 18 hours, and mitophagy activity was analyzed using a confocal microscope. Additionally, to measure autophagy activity, the BEAS-2B cell line expressing Keima fluorescent protein was incubated in Hanks' balanced salt solution (HBSS) for 3 hours to induce a starvation condition (starv.), and the results were compared with samples treated with CD1-012 (15 μM) for 18 hours using a confocal microscope.

[2] = system: mitochondrial membrane potential; assay: Mitochondrial membrane potential, TMRM assay; format: cell-based; conditions: CD1-012 10 μM or 15 μM, CCCP 10 μM, 24 hours (FIG. 6)
Method: (§1) It was confirmed whether the isoquinoline derivative according to the present invention induces mitochondrial dysfunction, similar to CCCP. To this end, the CD1-012 (10 μM or 15 μM) and CCCP (10 μM) were treated for 24 hours, and the mitochondrial membrane potential and mitochondrial reactive oxygen species (ROS) levels in each sample were analyzed. Mitochondrial membrane potential was analyzed using the TMRM (tetramethylrhodamine methyl ester) assay, and mitochondrial ROS levels were analyzed using the MitoSOX assay.

HeLa-Parkin cell line = assay: Mitophagy activity in HeLa-Parkin cells (FACS); format: cell-based, human; conditions: FACS (FIG. 2B)
Method: It was confirmed whether CD1-012 synthesized in Example 1 increases mitophagy activity in various cell lines. To this end, CD1-012 and Comparative Example 1 (CCCP) were treated in the SH-SY5Y cell line, a human neuroblastoma cell line expressing mt-Keima fluorescent protein, and in the HeLa-Parkin cell line, a HeLa cervical cancer cell line expressing Parkin (E3 ligase). Following this treatment, the mitophagy activity of each sample was analyzed using flow cytometry (FACS), and the results are shown in FIGS. 2A to 2B.

[3] = system: human nerve cell line H-SY5Y; assay: Mitochondrial function in sporadic Parkinson's disease cell model (MPP+ or 6-OHDA); format: cell-based; conditions: CD1-012 20 μM one day
Method: Sporadic Parkinson's disease has progressive motor/non-motor dysfunction symptoms, and most patients with Parkinson's disease have this disease. In this example, the therapeutic effect of CD1-012 on sporadic Parkinson's disease was confirmed. To this end, after a sporadic Parkinson's disease cell model was manufactured by treating a human nerve cell line H-SY5Y with the neurotoxins MPP+(62.5 μM) and 6-OHDA (40 μM) for two days, the cell model was treated with CD1-012 (20 μM) for one day and then the membrane potential and ATP production capacity of mitochondria were analyzed after two days.

[4] = system: mitochondria from the substantia nigra of the mice; assay: Mitochondrial function in substantia nigra of MPTP mouse model (TMRM, ATP production); format: in vivo
Method: Subsequently, it was confirmed that the compound CD1-012 of the present invention has an effect of improving mitochondrial dysfunction using an animal model of Parkinson's disease. To this end, after separating mitochondria from the substantia nigra of the mice undergoing the behavioral experiment in Example 4, the membrane potential of mitochondria was analyzed through TMRM (100 nM, 37° C., 30 min) fluorescent staining, and the mitochondrial function was analyzed by measuring ATP production (analyzed for 5 mice per group).

[5] = system: mitochondrial reactive oxygen species (ROS); assay: Mitochondrial reactive oxygen species, MitoSOX assay; format: cell-based; conditions: CD1-012 10 μM or 15 μM, CCCP 10 μM, 24 hours (FIG. 6)
Method: as §1

Oc1cc2c(cc1O)-c1cc3ccc(O)c(O)c3c[n+]1CC2 [CD1-012, 2,3,9,10-tetrahydroxy-5,6-dihydroisoquinolino[3,2-a]isoquinolin-7-ium bromide]
number of dopaminergic neurons in substantia nigra [1]: restored to a level similar to the control | autophagy activity compared to the untreated control group (BEAS-2B cell line): no significant difference in autophagy activity | mitochondrial membrane potential [2]: no decrease in mitochondrial membrane potential was observed | mitophagy activity compared to the control group (Con) (HeLa-Parkin cell line): significantly increased mitophagy activity | mitochondrial membrane potential ([3]; 6-OHDA (40 μM) model, analyzed after two days (FIG. 10B)): restored | ATP synthesis capacity of mitochondria ([3]; 6-OHDA (40 μM) model, analyzed after two days (FIG. 10D)): significantly restored | mitochondrial membrane potential ([3]; MPP+ (62.5 μM) model, analyzed after two days (FIG. 10A)): restored | ATP synthesis capacity of mitochondria ([3]; MPP+ (62.5 μM) model, analyzed after two days (FIG. 10C)): significantly restored | ATP synthesis capacity of mitochondria in substantia nigra ([4]; MPTP mice coadministered CD1-012 (FIG. 12B)): restoration | membrane potential of mitochondria in substantia nigra ([4]; MPTP mice coadministered CD1-012, TMRM (FIG. 12A)): restoration | mitochondrial ROS levels [5]: no increase in mitochondrial ROS was detected

Source: patent US20260130894A1, “COMPOSITION COMPRISING ISOQUINOLINE DERIVATIVE AS ACTIVE INGREDIENT FOR PREVENTION OR TREATMENT OF PARKINSON'S DISEASE” (ALTMEDICAL CO., LTD., priority 2022, published 2026)
